In patent publication US8338565B2, “Macrocyclic compounds for inhibition of tumor necrosis factor alpha” (Ensemble Therapeutics Corporation, priority 2008, dated 2012):
Numbered stars: 1 amine (or outer) side, 2 acyl side, 3 side chain; on linkers, the order of the positions; unused ones are H or OH. Bridge positions count the residues as written; N and C are the ends. Square brackets hold non-standard residues; d marks the D form. Peptide text beside a SMILES is read from it. * marks the point of attachment. Bip = N[C@@H](Cc1ccc(-c2ccccc2)cc1)C(=O)O; Phe(4-NH2) = Nc1ccc(C[C@H](N)C(=O)O)cc1; Met(O2) = CS(=O)(=O)CC[C@H](N)C(=O)O; d(hPhe) = N[C@H](CCc1ccccc1)C(=O)O; d2Thi = N[C@H](Cc1cccs1)C(=O)O; d3Thi = N[C@H](Cc1ccsc1)C(=O)O; Suc = O=C(CCC(=O)[*:2])[*:1]; X2 = O=C(O)[C@H]1CCCN(*)C1

The compounds below were run against T1, TNFα / TNFα receptor (TNFα R1/Fc) (Homo sapiens, UniProt P01375) (assay: Inhibition of binding of TNFα to the TNFα receptor (plate ELISA competition)). Details: Table 2; read-out: Activity (IC50, inhibition of TNFα binding to TNFα R1/Fc).
T1 construct: purchased R&D Systems
T1 sequence (P01375 77-233 limits assumed, species assumed): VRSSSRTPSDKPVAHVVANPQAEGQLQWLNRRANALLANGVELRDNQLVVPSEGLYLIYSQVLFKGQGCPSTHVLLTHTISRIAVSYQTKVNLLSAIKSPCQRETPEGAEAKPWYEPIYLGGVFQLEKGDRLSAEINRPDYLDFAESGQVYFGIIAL
Procedure, shortened: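 Plates were coated with TNFα at 15 nM. Test compound and 8.33 nM receptor-Fc (PBST, 2% DMSO) were first mixed in solution for 30 min at room temperature, then transferred to the plates for another 30 min. Competition was read by absorbance at 450 nm after HRP anti-human IgG Fc detection with TMB.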
Compound O=C1COc2ccc(cc2)C[C@@H](C(=O)O)NC(=O)[C@H](Cc2ccc(-c3ccncc3)cc2)NC(=O)[C@@H](Cc2ccc(-c3ccccc3)cc2)NC(=O)[C@H](Cc2ccncc2)N1 [Compound 645] has an IC50 of under 10 µM.
With O=C1COc2ccc(cc2)C[C@@H](C(=O)O)NC(=O)[C@H](CCc2ccccc2)NC(=O)[C@@H](Cc2ccc(-c3ccccc3)cc2)NC(=O)[C@H](Cc2ccc(Cl)cc2)N1 [Compound 707] the IC50 was under 10 µM.
In the case of O=C1COc2ccc(cc2)C[C@H](C(=O)O)NC(=O)[C@H](Cc2ccccc2F)NC(=O)[C@@H](Cc2ccc(-c3ccccc3)cc2)NC(=O)[C@H](Cc2c[nH]c3ccccc23)N1 [Compound 728], the IC50 is reported as 10 to 30 µM.
CC(=O)Nc1ccc(C[C@H](NC(=O)[C@@H]2Cc3ccc(cc3)NC(=O)CCC(=O)N[C@H](CCc3ccccc3)C(=O)N[C@@H](Cc3ccc(-c4ccccc4)cc3)C(=O)N[C@H](Cc3ccccc3)C(=O)N2)C(=O)O)cc1 [Compound 528] ([d(hPhe)][Bip][dF][Phe(4-NH2)][Phe(4-NH2)](Ac)-OH; linker N-4 via Suc) was tested, and the IC50 was under 10 µM.
With CS(=O)(=O)CC[C@@H]1NC(=O)[C@@H](Cc2cccs2)NC(=O)CCC(=O)Nc2ccc(cc2)C[C@@H](C(=O)O)NC(=O)[C@@H](Cc2ccccc2)NC1=O [Compound 98] ([d2Thi][Met(O2)][dF][Phe(4-NH2)]-OH; linker N-4 via Suc) the IC50 was over 100 µM.
Work on O=C1COc2ccc(cc2)C[C@@H](C(=O)O)NC(=O)[C@@H](CCc2ccccc2)NC(=O)[C@H](Cc2ccc(-c3ccccc3)cc2)NC(=O)[C@@H](Cc2ccc(-c3ccncc3)cc2)N1 [Compound 518] yielded an IC50 of under 10 µM.
Work on O=C(O)CCNC(=O)[C@@H]1Cc2ccc(cc2)OCC(=O)N[C@@H](Cc2ccncc2)C(=O)N[C@H](Cc2ccc(-c3ccccc3)cc2)C(=O)N[C@@H](CCc2ccccc2)C(=O)N1 [Compound 559] yielded an IC50 of under 10 µM.
In the case of O=C1COc2ccc(cc2)C[C@@H](C(=O)NCC2(C(=O)O)CC2)NC(=O)[C@@H](CCc2ccccc2)NC(=O)[C@H](Cc2ccc(-c3ccccc3)cc2)NC(=O)[C@@H](Cc2cccs2)N1 [Compound 404], the IC50 is reported as under 10 µM.
O=C1CCC(=O)N[C@H](Cc2cccs2)C(=O)N[C@@H](Cc2ccc(-c3ccccc3)cc2)C(=O)N[C@H](Cc2ccsc2)C(=O)N[C@H](C(=O)O)Cc2ccc(cc2)N1 [Compound 75] ([d2Thi][Bip][d3Thi][Phe(4-NH2)]-OH; linker N-4 via Suc) gave an IC50 of 30 to 100 µM.
With O=C(O)[C@@H]1Cc2ccc(cc2)NC(=O)[C@H](O)[C@@H](O)C(=O)N[C@H](Cc2cccs2)C(=O)N[C@@H](Cc2ccc(OCc3ccccc3)cc2)C(=O)N[C@H](Cc2ccccc2)C(=O)N1 [Compound 177] the IC50 was 30 to 100 µM.
For O=C1COc2ccc(cc2)C[C@@H](C(=O)O)NC(=O)[C@@H](Cc2ccc(O)cc2)NC(=O)[C@H](Cc2ccc(-c3ccccc3)cc2)NC(=O)[C@@H](Cc2cccs2)N1 [Compound 534], the IC50 was over 100 µM.
In the case of O=C1COc2ccc(cc2)C[C@@H](C(=O)N[C@H](CO)C(=O)O)NC(=O)[C@H](CCc2ccccc2)NC(=O)[C@@H](Cc2ccc(-c3ccccc3)cc2)NC(=O)[C@H](Cc2ccc(-c3ccncc3)cc2)N1 [Compound 584], the IC50 is reported as under 10 µM.
For O=C1COc2ccc(cc2)C[C@@H](C(=O)O)NC(=O)[C@H](CCc2ccccc2)NC(=O)[C@@H](Cc2ccc(-c3ccccc3)cc2)NC(=O)[C@H](Cc2ccc(-c3ccccc3)cc2)N1 [Compound 510], the IC50 was under 10 µM.
O=C(O)[C@@H]1Cc2ccc(cc2)NC(=O)[C@H](O)[C@@H](O)C(=O)N[C@H](Cc2cccs2)C(=O)N[C@@H](Cc2ccc3ccccc3c2)C(=O)N[C@H](Cc2ccccc2)C(=O)N1 [Compound 190] gave an IC50 of 10 to 30 µM.
For O=C1COc2ccc(cc2)C[C@@H](C(=O)O)NC(=O)[C@@H](CCc2ccccc2)NC(=O)[C@H](Cc2ccc(Cl)cc2Cl)NC(=O)[C@@H](CCc2ccccc2)N1 [Compound 149], the IC50 was 10 to 30 µM.
With O=C1CCC(=O)N[C@H](Cc2cccs2)C(=O)N[C@@H](Cc2ccc(-c3ccccc3)cc2)C(=O)N[C@H](Cc2ccccc2)C(=O)N[C@H](C(=O)N2CCC[C@H](C(=O)O)C2)Cc2ccc(cc2)N1 [Compound 37] ([d2Thi][Bip][dF][Phe(4-NH2)]-X2; linker N-4 via Suc) the IC50 was over 100 µM.
